According to patent publication US7326703B2, “(1,10B-Dihydro-2-(aminocarbonyl-phenyl)-5H-pyrazolo[1,5-c][1,3]benzoxazin-5-yl)phenyl methanone derivatives as HIV viral replication inhibitors” (priority 2004, dated 2008):

What was measured:
[1] = system: HIV-1 strain LAI; experiment: Cellular anti-viral assay in MT4-LTR-EGFP cells, wild type HIV-1 strain LAI; type: cell-based; settings: Human immunodeficiency virus 1, 72 h; MT4-LTR-EGFP cells, three days incubation, GFP signal; average EC50 used where more than one run; read-out: Activity class for HIV-1-LAI test
Experimental: (§1) The compounds were tested in a cellular assay using the MT4-LTR-EGFP cells for anti-viral activity. […] The cellular assay was performed according to the following procedure.
(§2) HIV- or mock-infected MT4-LTR-EGFP cells were incubated for three days in the presence of various concentrations of the inhibitor. Upon infection, the GFP reporter is activated by the viral tat protein. At the end of the incubation period, the GFP signal was measured. In the virus control samples (in the absence of any inhibitor) the maximal fluorescent signal was obtained. The inhibitory activity of the compound was monitored on the virus-infected cells and was expressed as EC50 and EC90. These values represent the amount of the compound required to protect 50% and 90%, respectively, of the cells from virus infection. The toxicity of the compound was measured on the mock-infected cells and was expressed as CC50, which represents the concentration of compound required to inhibit the growth of the cells by 50%. The selectivity index (SI) (ratio CC50/EC50) is an indication of the selectivity of the anti-HIV activity of the inhibitor.

[2] = system: HIV-1-MDR; experiment: Cellular anti-viral assay in MT4-LTR-EGFP cells, multi-drug resistant HIV-1 virus; type: cell-based; settings: Human immunodeficiency virus 1, 72 h, read-out: Activity class for HIV-1-MDR test
Experimental: as §1, §2

| SMILES | EC50 [1] [µM] | EC50 [2] [µM] |
| --- | --- | --- |
| O=C(NC1CCCCC1)c1ccc(C2=NN3C(C(=O)c4ccc(F)cc4)Oc4ccccc4C3C2)cc1 (stereo not drawn) [Compound 1] | 1 to 10 | > 10 |
| O=C(NCC1CCCCC1)c1ccc(C2=NN3C(C(=O)c4ccc(F)cc4)Oc4ccccc4C3C2)cc1 (stereo not drawn) [Compound 2] | > 10 | > 10 |
| CN(C)CCCNC(=O)c1ccc(C2=NN3C(C(=O)c4ccc(F)cc4)Oc4ccccc4C3C2)cc1 (stereo not drawn) [Compound 3] | > 10 | > 10 |
| O=C(NCc1ccccn1)c1ccc(C2=NN3C(C(=O)c4ccc(Br)cc4)Oc4ccccc4C3C2)cc1 (stereo not drawn) [Compound 4] | 1 to 10 | – |
| COc1ccc(CNC(=O)c2ccc(C3=NN4C(C(=O)c5ccc(Br)cc5)Oc5ccccc5C4C3)cc2)cc1 (stereo not drawn) [Compound 5] | < 1 | > 10 |
| O=C(NC1CCCC1)c1ccc(C2=NN3C(C(=O)c4ccc(Br)cc4)Oc4ccccc4C3C2)cc1 (stereo not drawn) [Compound 6] | < 1 | > 10 |
| O=C(NCCc1ccccn1)c1ccc(C2=NN3C(C(=O)c4ccc(Br)cc4)Oc4ccccc4C3C2)cc1 (stereo not drawn) [Compound 7] | 1 to 10 | > 10 |
| CN1CCN(C(=O)c2ccc(C3=NN4C(C(=O)c5ccc(Br)cc5)Oc5ccccc5C4C3)cc2)CC1 (stereo not drawn) [Compound 8] | – | > 10 |
| CN(C)CCCNC(=O)c1ccc(C2=NN3C(C(=O)c4ccc(Br)cc4)Oc4ccccc4C3C2)cc1 (stereo not drawn) [Compound 9] | < 1 | > 10 |
| O=C(NCc1cccc(F)c1)c1ccc(C2=NN3C(C(=O)c4ccc(F)cc4)Oc4ccccc4C3C2)cc1 (stereo not drawn) [Compound 10] | > 10 | > 10 |
| O=C(c1ccc(F)cc1)C1Oc2ccccc2C2CC(c3ccc(C(=O)N4CCc5ccccc5C4)cc3)=NN12 (stereo not drawn) [Compound 11] | > 10 | > 10 |
| O=C(NCC1CCCO1)c1ccc(C2=NN3C(C(=O)c4ccc(F)cc4)Oc4ccccc4C3C2)cc1 (stereo not drawn) [Compound 12] | 1 to 10 | > 10 |
| CN(C)CCNC(=O)c1ccc(C2=NN3C(C(=O)c4ccc(F)cc4)Oc4ccccc4C3C2)cc1 (stereo not drawn) [Compound 13] | 1 to 10 | > 10 |
| CC(C)(C)OC(=O)N1CCN(C(=O)c2ccc(C3=NN4C(C(=O)c5ccc(F)cc5)Oc5ccccc5C4C3)cc2)CC1 (stereo not drawn) [Compound 14] | > 10 | > 10 |
| O=C(c1ccc(F)cc1)C1Oc2ccccc2C2CC(c3ccc(C(=O)N4CCN(Cc5ccccc5)CC4)cc3)=NN12 (stereo not drawn) [Compound 15] | > 10 | > 10 |
| O=C(NCc1ccccn1)c1ccc(C2=NN3C(C(=O)c4ccc(F)cc4)Oc4ccccc4C3C2)cc1 (stereo not drawn) [Compound 16] | > 10 | > 10 |
| O=C(c1ccc(F)cc1)C1Oc2ccccc2C2CC(c3ccc(C(=O)N4CCCCCC4)cc3)=NN12 (stereo not drawn) [Compound 17] | < 1 | > 10 |
| O=C(NC1CCCC1)c1ccc(C2=NN3C(C(=O)c4ccc(F)cc4)Oc4ccccc4C3C2)cc1 (stereo not drawn) [Compound 18] | < 1 | – |
| O=C(NCCc1ccccn1)c1ccc(C2=NN3C(C(=O)c4ccc(F)cc4)Oc4ccccc4C3C2)cc1 (stereo not drawn) [Compound 19] | 1 to 10 | > 10 |
| CN(C)CCCN(C)C(=O)c1ccc(C2=NN3C(C(=O)c4ccc(F)cc4)Oc4ccccc4C3C2)cc1 (stereo not drawn) [Compound 20] | 1 to 10 | 1 to 10 |
| COc1ccc(CNC(=O)c2ccc(C3=NN4C(C(=O)c5ccc(F)cc5)Oc5ccccc5C4C3)cc2)cc1 (stereo not drawn) [Compound 21] | > 10 | > 10 |
| CC(C)CC(C)NC(=O)c1ccc(C2=NN3C(C(=O)c4ccc(F)cc4)Oc4ccccc4C3C2)cc1 (stereo not drawn) [Compound 22] | < 1 | > 10 |
| COc1ccccc1CNC(=O)c1ccc(C2=NN3C(C(=O)c4ccc(F)cc4)Oc4ccccc4C3C2)cc1 (stereo not drawn) [Compound 23] | > 10 | > 10 |

| SMILES | EC50 [1] [µM] | EC50 [2] [µM] |
| --- | --- | --- |
| COc1cccc(CNC(=O)c2ccc(C3=NN4C(C(=O)c5ccc(F)cc5)Oc5ccccc5C4C3)cc2)c1 (stereo not drawn) [Compound 24] | 1 to 10 | 1 to 10 |
| COc1ccc(OC)c(CNC(=O)c2ccc(C3=NN4C(C(=O)c5ccc(F)cc5)Oc5ccccc5C4C3)cc2)c1 (stereo not drawn) [Compound 25] | 1 to 10 | 1 to 10 |
| COc1ccc(NC(=O)c2ccc(C3=NN4C(C(=O)c5ccc(F)cc5)Oc5ccccc5C4C3)cc2)cc1 (stereo not drawn) [Compound 26] | 1 to 10 | 1 to 10 |
| CN(C)c1ccc(NC(=O)c2ccc(C3=NN4C(C(=O)c5ccc(F)cc5)Oc5ccccc5C4C3)cc2)cc1 (stereo not drawn) [Compound 27] | < 1 | < 1 |
| COc1ccc(N(C)C(=O)c2ccc(C3=NN4C(C(=O)c5ccc(F)cc5)Oc5ccccc5C4C3)cc2)cc1 (stereo not drawn) [Compound 28] | < 1 | < 1 |
| O=C(Nc1cccnc1)c1ccc(C2=NN3C(C(=O)c4ccc(F)cc4)Oc4ccccc4C3C2)cc1 (stereo not drawn) [Compound 29] | 1 to 10 | < 1 |
| O=C(NCc1cccs1)c1ccc(C2=NN3C(C(=O)c4ccc(F)cc4)Oc4ccccc4C3C2)cc1 (stereo not drawn) [Compound 30] | > 10 | > 10 |
| O=C(NCc1ccco1)c1ccc(C2=NN3C(C(=O)c4ccc(F)cc4)Oc4ccccc4C3C2)cc1 (stereo not drawn) [Compound 31] | 1 to 10 | 1 to 10 |
| CCNC(=O)c1ccc(C2=NN3C(C(=O)c4ccc(F)cc4)Oc4ccccc4C3C2)cc1 (stereo not drawn) [Compound 32] | > 10 | 1 to 10 |
| CC(C)NC(=O)c1ccc(C2=NN3C(C(=O)c4ccc(F)cc4)Oc4ccccc4C3C2)cc1 (stereo not drawn) [Compound 33] | < 1 | < 1 |
| CN1CCC(NC(=O)c2ccc(C3=NN4C(C(=O)c5ccc(F)cc5)Oc5ccccc5C4C3)cc2)CC1 (stereo not drawn) [Compound 34] | 1 to 10 | > 10 |
| CN1CCN(C(=O)c2ccc(C3=NN4C(C(=O)c5ccc(F)cc5)Oc5ccccc5C4C3)cc2)CC1 (stereo not drawn) [Compound 35] | < 1 | > 10 |
| CN(C(=O)c1ccc(C2=NN3C(C(=O)c4ccc(F)cc4)Oc4ccccc4C3C2)cc1)C1CCCCC1 (stereo not drawn) [Compound 36] | < 1 | – |
| C=CCN(C(=O)c1ccc(C2=NN3C(C(=O)c4ccc(F)cc4)Oc4ccccc4C3C2)cc1)C1CCCCC1 (stereo not drawn) [Compound 37] | 1 to 10 | > 10 |
| O=C(NC1CCC1)c1ccc(C2=NN3C(C(=O)c4ccc(F)cc4)Oc4ccccc4C3C2)cc1 (stereo not drawn) [Compound 38] | < 1 | 1 to 10 |
| CN(C)CCN(C)C(=O)c1ccc(C2=NN3C(C(=O)c4ccc(F)cc4)Oc4ccccc4C3C2)cc1 (stereo not drawn) [Compound 39] | < 1 | 1 to 10 |
| O=C(NCCN1CCCC1)c1ccc(C2=NN3C(C(=O)c4ccc(F)cc4)Oc4ccccc4C3C2)cc1 (stereo not drawn) [Compound 40] | 1 to 10 | > 10 |
| CC(C)(C)NCCNC(=O)c1ccc(C2=NN3C(C(=O)c4ccc(F)cc4)Oc4ccccc4C3C2)cc1 (stereo not drawn) [Compound 41] | 1 to 10 | > 10 |
| CCN(CC)CCNC(=O)c1ccc(C2=NN3C(C(=O)c4ccc(F)cc4)Oc4ccccc4C3C2)cc1 (stereo not drawn) [Compound 42] | 1 to 10 | > 10 |
| CN(C)CCN(Cc1ccccc1)C(=O)c1ccc(C2=NN3C(C(=O)c4ccc(F)cc4)Oc4ccccc4C3C2)cc1 (stereo not drawn) [Compound 43] | 1 to 10 | > 10 |
| O=C(NC1CCCC1)c1ccc(C2=NN3C(C(=O)c4ccc(N5CCCCC5)cc4)Oc4ccccc4C3C2)cc1 (stereo not drawn) [Compound 49] | > 10 | – |
| COc1ccc(C(=O)C2Oc3ccccc3C3CC(c4ccc(C(=O)NC5CCCC5)cc4)=NN23)cc1 (stereo not drawn) [Compound 51] | – | < 1 |
